Measurements reported in ChEMBL document CHEMBL1201862, “PubChem BioAssay data set” (2004).
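Assay format: 96-well plates, 48-hour exposure. The concentration for 50% growth inhibition is given as GI50.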 Active and inactive are the calls of the source. Cut-off read from the data, not from the text of the source: active = GI50 up to about 1.1 µM and inactive = higher.

What was measured:
Test in all cases: inhibition of tumour cell growth, NCI panel, 48 h
[1] = system: ACHN
[2] = system: EKVX
[3] = system: HL-60
[4] = system: HOP-92
[5] = system: LOX IMVI
[6] = system: MCF7
[7] = system: MDA-N
[8] = system: Malme-3M
[9] = system: NCI-H226
[10] = system: NCI/ADR-RES
[11] = system: OVCAR-4
[12] = system: PC-3
[13] = system: RXF 393
[14] = system: SF-539
[15] = system: SR
[16] = system: T47D
[17] = system: UACC-62
[18] = system: HCC 2998
[19] = system: DLD-1
[20] = system: SNB-78

| Structure (SMILES) | GI50 [1] | GI50 [2] | GI50 [3] | GI50 [4] | GI50 [5] | GI50 [6] | GI50 [7] | GI50 [8] | GI50 [9] | GI50 [10] | GI50 [11] | GI50 [12] | GI50 [13] | GI50 [14] | GI50 [15] | GI50 [16] | GI50 [17] | GI50 [18] | GI50 [19] | GI50 [20] |
| --- | --- | --- | --- | --- | --- | --- | --- | --- | --- | --- | --- | --- | --- | --- | --- | --- | --- | --- | --- | --- |
| O=C(O)c1cc(-c2ccc3cc4c(cc3c2)OCO4)nc2ccccc12 | 37.8 µM (inactive) | 14.4 µM (inactive) | 16.5 µM (inactive) | 20.1 µM (inactive) | 29.3 µM (inactive) | 32.2 µM (inactive) | 36 µM (inactive) | 65.2 µM (inactive) | 42.4 µM (inactive) | 40.7 µM (inactive) | > 100 µM (inactive) | 14.1 µM (inactive) | 54 µM (inactive) | 92.9 µM (inactive) | 7.45 µM (inactive) | 54.8 µM (inactive) | 23.5 µM (inactive) |  |  |  |
| CCOC(=O)CCc1ccc(NC(=O)/C=C/c2ccc([N+](=O)[O-])o2)cc1 | 1.34 µM (inactive) | > 100 µM (inactive) | 0.166 µM (active) | 4.04 µM (inactive) | 0.356 µM (active) | 0.426 µM (active) | 0.807 µM (active) | 1.49 µM (inactive) | 4.34 µM (inactive) | 1.78 µM (inactive) | 3.94 µM (inactive) | 3.03 µM (inactive) | 0.794 µM (active) | 1.72 µM (inactive) | 0.155 µM (active) | 3.24 µM (inactive) | 2.12 µM (inactive) | 2.69 µM (inactive) |  |  |
| CCN(CC)C(=O)c1cc(OC(C)C)ccc1-c1c(C)cc(OC(C)C)c(OC)c1OC | 57.8 µM (inactive) | 60.7 µM (inactive) | 45.9 µM (inactive) |  | 58.9 µM (inactive) |  |  | 44 µM (inactive) | 98.2 µM (inactive) |  | 47.5 µM (inactive) |  | 43 µM (inactive) | 92 µM (inactive) | 33.6 µM (inactive) |  | 51.8 µM (inactive) | 46.3 µM (inactive) | 40.3 µM (inactive) |  |
| O=C1CN2C(Cl)(Cl)C2(c2ccccc2)c2cc(Cl)ccc2N1CC1CC1 (stereo not given) | 23.8 µM (inactive) | 31.8 µM (inactive) |  | 12.3 µM (inactive) | 17.3 µM (inactive) |  |  | 17.3 µM (inactive) | 21.3 µM (inactive) |  | 30.3 µM (inactive) |  | 18.7 µM (inactive) |  | 29.2 µM (inactive) |  |  | 18.7 µM (inactive) | 16.9 µM (inactive) |  |
| O=c1ccc2cc3ccc4cccc5ccc(c2o1)c3c45 | 12.5 µM (inactive) | > 100 µM (inactive) | > 100 µM (inactive) | 5.24 µM (inactive) | 12.1 µM (inactive) |  |  | > 100 µM (inactive) | 19.7 µM (inactive) |  |  |  |  | 9.64 µM (inactive) |  |  | 47 µM (inactive) |  | > 100 µM (inactive) | > 100 µM (inactive) |
| CC(=O)N/C(=C\c1ccc(Cc2nc3c([nH]2)C(=O)c2ccccc2C3=O)cc1)c1nc2c([nH]1)C(=O)c1ccccc1C2=O | > 100 µM (inactive) | > 100 µM (inactive) | > 100 µM (inactive) | > 100 µM (inactive) | > 100 µM (inactive) |  |  | > 100 µM (inactive) | > 100 µM (inactive) |  | > 100 µM (inactive) |  | > 100 µM (inactive) | > 100 µM (inactive) |  |  |  | > 100 µM (inactive) | > 100 µM (inactive) |  |
| COc1ccccc1C(=O)NCC1CCCN2CCCCC12 (stereo not given) | > 100 µM (inactive) | > 100 µM (inactive) | > 100 µM (inactive) | > 100 µM (inactive) | > 100 µM (inactive) | > 100 µM (inactive) | > 100 µM (inactive) | > 100 µM (inactive) | > 100 µM (inactive) | > 100 µM (inactive) | > 100 µM (inactive) | > 100 µM (inactive) | > 100 µM (inactive) | > 100 µM (inactive) | > 100 µM (inactive) | > 100 µM (inactive) | > 100 µM (inactive) | > 100 µM (inactive) |  |  |
| CCn1c(=O)nc2n(-c3ccccc3)c3ccccc3nc-2c1=O | 4.21 µM (inactive) | 43.7 µM (inactive) | 10.7 µM (inactive) | 18.3 µM (inactive) |  |  |  | 16.3 µM (inactive) | 20 µM (inactive) |  | 12.6 µM (inactive) |  |  | 14.2 µM (inactive) |  |  | 12.7 µM (inactive) | 21 µM (inactive) | 28.3 µM (inactive) | 49.8 µM (inactive) |
| CC1(C)N=C(Oc2ccccc2)n2nccc2N1 | > 100 µM (inactive) | > 100 µM (inactive) | > 100 µM (inactive) | > 100 µM (inactive) | 53.8 µM (inactive) |  |  | > 100 µM (inactive) | > 100 µM (inactive) |  | > 100 µM (inactive) |  | > 100 µM (inactive) | > 100 µM (inactive) | 61.4 µM (inactive) |  | 63.4 µM (inactive) | > 100 µM (inactive) | > 100 µM (inactive) |  |
| COC1OC(CS(=O)(=O)O)C(O)C(O)C1O (stereo not given) |  |  | > 100 µM (inactive) | > 100 µM (inactive) | > 100 µM (inactive) | > 100 µM (inactive) | > 100 µM (inactive) | > 100 µM (inactive) | > 100 µM (inactive) | > 100 µM (inactive) | > 100 µM (inactive) | > 100 µM (inactive) | > 100 µM (inactive) |  | > 100 µM (inactive) | > 100 µM (inactive) | > 100 µM (inactive) | > 100 µM (inactive) |  |  |
| Cc1ccc(CCC(=O)C(=O)O)s1 | > 100 µM (inactive) | > 100 µM (inactive) | > 100 µM (inactive) | > 100 µM (inactive) |  |  |  | > 100 µM (inactive) |  |  | > 100 µM (inactive) |  |  | > 100 µM (inactive) | > 100 µM (inactive) |  | 19.4 µM (inactive) | > 100 µM (inactive) |  | > 100 µM (inactive) |
| CC1C(=O)N(c2ccccc2)NC12CCCc1ccccc12 (stereo not given) | > 100 µM (inactive) | > 100 µM (inactive) | > 100 µM (inactive) | > 100 µM (inactive) | > 100 µM (inactive) | > 100 µM (inactive) | > 100 µM (inactive) | > 100 µM (inactive) | > 100 µM (inactive) | > 100 µM (inactive) | > 100 µM (inactive) | > 100 µM (inactive) | > 100 µM (inactive) | > 100 µM (inactive) | > 100 µM (inactive) | > 100 µM (inactive) | > 100 µM (inactive) | > 100 µM (inactive) |  |  |
| C=CC(=O)NC(O)(C(=O)OCC)C(F)(F)F (stereo not given) | > 100 µM (inactive) | > 100 µM (inactive) | 35 µM (inactive) | > 100 µM (inactive) | > 100 µM (inactive) | > 100 µM (inactive) | > 100 µM (inactive) | > 100 µM (inactive) | > 100 µM (inactive) | > 100 µM (inactive) | > 100 µM (inactive) | > 100 µM (inactive) | > 100 µM (inactive) | > 100 µM (inactive) | 64.4 µM (inactive) | > 100 µM (inactive) | > 100 µM (inactive) | > 100 µM (inactive) |  |  |
| O=C1CC(CC(OCc2ccccc2)C(COCc2ccccc2)OCc2ccccc2)CC(=O)N1 (stereo not given) | 30.3 µM (inactive) | 19.7 µM (inactive) | 28 µM (inactive) | 39.2 µM (inactive) | 34.3 µM (inactive) | 33.1 µM (inactive) | 30.1 µM (inactive) | 19.9 µM (inactive) | 44.1 µM (inactive) | 24.7 µM (inactive) | 38.4 µM (inactive) | 24.7 µM (inactive) | 30.1 µM (inactive) | 60.3 µM (inactive) | 34.3 µM (inactive) | 27.9 µM (inactive) |  | 36.6 µM (inactive) |  |  |
| O=C1C=CC=C/C1=C1/SC(c2ccccc2)=C(O)N1c1ccccc1 | > 100 µM (inactive) | > 100 µM (inactive) |  | > 100 µM (inactive) |  |  |  | > 100 µM (inactive) | > 100 µM (inactive) |  | > 100 µM (inactive) |  | > 100 µM (inactive) | > 100 µM (inactive) |  |  | > 100 µM (inactive) | > 100 µM (inactive) |  | > 100 µM (inactive) |
| CN(C)c1ccc(/C=C2/SC(=S)NC2=O)cc1 | > 100 µM (inactive) | > 100 µM (inactive) | > 100 µM (inactive) | > 100 µM (inactive) | > 100 µM (inactive) | > 100 µM (inactive) | > 100 µM (inactive) | > 100 µM (inactive) | > 100 µM (inactive) | > 100 µM (inactive) | > 100 µM (inactive) | > 100 µM (inactive) | > 100 µM (inactive) | > 100 µM (inactive) | > 100 µM (inactive) | > 100 µM (inactive) | > 100 µM (inactive) | > 100 µM (inactive) |  |  |
| O=C1CCC(c2ccccc2)=NN1c1nsc2ccccc12 | > 100 µM (inactive) | 82.6 µM (inactive) | > 100 µM (inactive) | > 100 µM (inactive) | > 100 µM (inactive) |  |  |  |  |  | > 100 µM (inactive) |  | > 100 µM (inactive) | > 100 µM (inactive) | 58.9 µM (inactive) |  | > 100 µM (inactive) | 60.8 µM (inactive) |  | > 100 µM (inactive) |
| COc1ccc(Cc2nccc3cc(OC)c(OC)cc23)cc1 | 43.3 µM (inactive) | > 100 µM (inactive) |  |  |  |  |  | > 100 µM (inactive) |  |  | 36.5 µM (inactive) |  |  | > 100 µM (inactive) |  |  | 42.2 µM (inactive) | > 100 µM (inactive) | > 100 µM (inactive) | > 100 µM (inactive) |
| COc1ccc(/C=N/n2c(C)nc3c(sc(=S)n3-c3ccccc3)c2=O)cc1 | > 100 µM (inactive) |  | 21.6 µM (inactive) | 40.7 µM (inactive) |  |  |  |  | > 100 µM (inactive) |  |  |  |  | 47.3 µM (inactive) | 44 µM (inactive) |  | 60.5 µM (inactive) | > 100 µM (inactive) | > 100 µM (inactive) |  |
| Clc1ccc(-c2nnc(-c3nsc4ccccc34)o2)cc1 | 25.1 µM (inactive) | 14.2 µM (inactive) |  | 17.9 µM (inactive) | 40.1 µM (inactive) |  |  |  |  |  | 14.2 µM (inactive) |  | 38.3 µM (inactive) | 20 µM (inactive) | > 10 µM (inactive) |  | 54 µM (inactive) | 24.9 µM (inactive) |  | 46.2 µM (inactive) |
